The target in data set [1] is T1, PGAM1 (Homo sapiens, UniProt P18669).
T1 construct: His6 (C); made in house
Description: PGAM1 enzymatic assay (enolase-pyruvate kinase-LDH coupled, OD 340 nm). In kind it is biochemical. The conditions noted are these: optimized enzymatic assay; mean ± s.d. (n = 3). The protocol:
(§1) Firstly, 1 μL inhibitor in dimethyl sulfoxide (DMSO) incubated with 49 μL 4.6 nM recombinant PGAM1, then 50 μL enzyme mix containing 3 units/mL enolase (Sigma-Aldrich, Saint Louis, MO, USA), 3 units/mL recombinant pyruvate kinase M2 (Sigma-Aldrich), 0.6 units/mL recombinant lactatdehydrogenase (LDH, Sigma-Aldrich), 100 mM Tris-HCl, 100 mM KCl, 5 mM MgCl2, 1 mM adenosine diphosphate (ADP), 0.2 mM the reduced form of nicotinamide adenine dinucleotide (NADH) and 4 mM 3PG was added. PGAM1 activity was measured as the decrease in OD at 340 nm. In addition, we performed a counter screening in which 4mM 2PG was added to 50 μL reaction mix containing the indicated inhibitor, 3 units/mL enolase (Sigma-Aldrich), 3 units/mL recombinant pyruvate kinase M2 (Sigma-Aldrich), 0.6 units/mL recombinant LDH (Sigma-Aldrich), 100 mM Tris-HCl, 100 mM KCl, 5 mM MgCl2, 1 mM ADP and 0.2 mM NADH. The other three enzyme activity was measured as the decrease in OD at 340 nm.

The next data set has as its system A549 cells. Description: Cell viability assay (MTT, 72 h), A549. It is filed as cell-based. The conditions noted are these: Homo sapiens, proliferation, mean ± s.d. (n = 3). As for the experimental part: (§2) The H1299 cell line was obtained from Guangzhou Jenniobio Biotechnology Co., Ltd. (Guangzhou, China), PC9 and A549 cells were gifted from Deng Jiong’s lab in the School of Medicine, Shanghai Jiao Tong University, Shanghai, China). H1299, PC9 cells were cultured in RPMI-1640 medium and A549 cells were cultured in F-12K medium containing 10% fetal bovine serum (FBS), 100 units/mL of Penicillin and 100 μg/mL Streptomycin. In cell viability assays, 2000 H1299 cells, A549 cells or 1000 PC9 cells per well were seeded in 96-well plate. After attachment for 24 h, the cells were treated with indicated inhibitor for 72 h. After incubation with 0.5 mg/mL methylthiazolyldiphenyl-tetrazolium bromide (MTT) for 4 h, cell viability was measured as the OD at 570 nm.

Data set [2] deals with enolase-pyruvate kinase-LDH. As to the kind of experiment: Counter screening: control linked enzyme assay with 2PG. In kind it is biochemical. The conditions noted are these: 0.5 μM compound, pyruvate kinase M2, LDH without PGAM1, mean ± s.d. (n = 2). The protocol:
as §1
Background: Counterscreens check selectivity or assay interference.

Data set [3] relates to H1299 cells. Description: Cell viability assay (MTT, 72 h), H1299. The conditions noted are these: Homo sapiens, NCI-H1299, proliferation, mean ± s.d. (n = 3). In kind it is cell-based. The protocol: as §2
The subject of another data set is PC9 cells. Description: Cell viability assay (MTT, 72 h), PC9. It is filed as cell-based. The conditions noted are these: Homo sapiens, PC-9, proliferation, mean ± s.d. (n = 3). As for the experimental part: as §2
In the next data set the test system is MDA-MB-231 cells. Details: method as in PMID 16200062. As to conditions: Figure 1; read-out: MDA-MB-231 cells IC50 (reported inhibitor); cited from earlier work.
The target of data set [4] is T1, PGAM1. Details: method as in PMID 16200062, PMID 28611670, PMID 23153533, PMID 29530347. As to conditions: Figure 1; read-out: PGAM1 IC50 (reported inhibitors); cited from earlier work.
Data set [5] addresses T1, PGAM1. As to the kind of experiment: Substrate competitive assay with 3PG. It is filed as biochemical.
A further data set can be described thus: Solubility. In kind it is physicochemical. As to conditions: remark in text, no method given.
The subject of data set [6] is PGAM1 mutations (F22A, R116H and R191H). As to the kind of experiment: Inhibition of PGAM1 mutants compared with wild type. It is filed as biochemical. The conditions noted are these: 5 μM compound. An excerpt: To further understand the molecular mechanism of the anthraquinone derivatives interacting with PGAM1, we determined the X-ray structure of PGAM1 in complex with compound 9i at resolution of 1.98 Å (Table 5). Compound 9i occupied a novel allosteric site adjacent to substrate binding site with nice electron density (Figure 3A,B). The allosteric pocket was surrounded by the residues of F22, R90, K100, R116 and R191. In detail, the anthraquinone scaffold and sulfonamide of compound 9i interacted with the main chain carbonyl of K100 through water bridges (Figure 3C). In addition, a hydrophobic interaction was observed between F22 and chlorine-substituted phenyl ring of compound 9i (Figure 3C). […]
Firstly, 1 μL inhibitor in dimethyl sulfoxide (DMSO) incubated with 49 μL 4.6 nM recombinant PGAM1, then 50 μL enzyme mix containing 3 units/mL enolase (Sigma-Aldrich, Saint Louis, MO, USA), 3 units/mL recombinant pyruvate kinase M2 (Sigma-Aldrich), 0.6 units/mL recombinant lactatdehydrogenase (LDH, Sigma-Aldrich), 100 mM Tris-HCl, 100 mM KCl, 5 mM MgCl2, 1 mM adenosine diphosphate (ADP), 0.2 mM the reduced form of nicotinamide adenine dinucleotide (NADH) and 4 mM 3PG was added. PGAM1 activity was measured as the decrease in OD at 340 nm. […] The other three enzyme activity was measured as the decrease in OD at 340 nm. […]

Data set [7] relates to H1299 cells. Details: method as in PMID 28611670, PMID 23153533, PMID 29530347. As to conditions: Figure 1; read-out: H1299 cells IC50 (reported inhibitors); cited from earlier work.

Molecules are shown by their SMILES. Entries after “also recorded” stand apart in the source; their conditions may differ. Read-outs that look alike come from different tables or passages of the source.

In general, IC50 refers to the concentration needed to halve the response being measured.

T1 sequence (P18669 whole entry): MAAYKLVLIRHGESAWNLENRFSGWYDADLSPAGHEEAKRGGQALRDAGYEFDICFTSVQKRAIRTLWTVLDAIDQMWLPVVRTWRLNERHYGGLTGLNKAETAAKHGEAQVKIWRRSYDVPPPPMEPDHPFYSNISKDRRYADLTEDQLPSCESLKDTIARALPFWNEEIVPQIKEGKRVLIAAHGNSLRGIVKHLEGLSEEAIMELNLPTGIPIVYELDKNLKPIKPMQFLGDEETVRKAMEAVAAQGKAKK

As to `O=C1c2ccccc2C(=O)c2c1cc(NS(=O)(=O)c1ccc(OC(F)(F)F)cc1)c(O)c2O` [Compound 9c, N-(3,4-Dihydroxy-9,10-dioxo-9,10-dihydroanthracen-2-yl)-4-(trifluoromethoxy) benzenesulfonamide], the IC50 against PGAM1 [1] came to 0.9 ± 0.07 µM; in the data set on A549 cells, 8 ± 0.8 µM; with H1299 cells [3], 16.6 ± 1.8 µM; with PC9 cells it was 10.2 ± 0.7 µM. Moreover, in [2], the “Inhibition in the Control Linked Enzyme Assay (0.5 μM)” value (from here on “Inhibition … (0.5 μM)”) worked out at 3.7 ± 1.8%.

On to `O=C1c2ccccc2C(=O)c2c1cc(NS(=O)(=O)c1ccc(I)cc1)c(O)c2O` [Compound 9p, 4-Iodo-N-(3,4-dihydroxy-9,10-dioxo-9,10-dihydroanthracen-2-yl) benzenesulfonamide], for which the IC50 at PGAM1 [1] is 0.47 ± 0.07 µM; with A549 cells it was 10.3 ± 1.4 µM; in the data set on H1299 cells [3], 17.3 ± 3.9 µM; in the data set with PC9 cells, 13.4 ± 1.8 µM. For the same compound, the “Inhibition … (0.5 μM)” value in data set [2] turned out to be 1.9 ± 0.1%.

With `C#CCCCC(=O)OC(C)(C)C1CCC2(CO2)C(OC(=O)NC(Cc2c[nH]c3ccccc23)C(=O)OCc2ccccc2)C1` (stereo not drawn) [MJE3], the IC50 in the data set on MDA-MB-231 cells was 19 µM; at PGAM1 [4] it was 33 µM.

Regarding `COc1c(N(C)S(=O)(=O)c2ccc(Cl)cc2)cc2c(c1O)C(=O)c1ccccc1C2=O` [Compound 14d, 4-chloro-N-(4-hydroxy-3-methoxy-9,10-dioxo-9,10-dihydroanthracen-2-yl)-N-methyl-benzenesulfonamide], the IC50 stood at 7.01 ± 0.92 µM at PGAM1 [1], 9.9 ± 0.2 µM in the data set on A549 cells, 10.3 ± 0.8 µM with H1299 cells [3] and 49.1 ± 1.9 µM in the data set on PC9 cells.

With `O=C1c2ccccc2C(=O)c2c1cc(NS(=O)(=O)c1ccc(Cl)cc1)c(O)c2O` [Compound 9i, 4-Chloro-N-(3,4-dihydroxy-9,10-dioxo-9,10-dihydroanthracen-2-yl) benzenesulfonamide], the IC50 against PGAM1 [1] came to 0.27 ± 0.04 µM; with A549 cells, 12.7 ± 2.7 µM; in the data set with H1299 cells [3], 6.9 ± 1.2 µM; in the data set on PC9 cells, 13.8 ± 1 µM. For the same compound, the “Mode of inhibition with respect to substrate 3PG” value at PGAM1 [5] is recorded as “noncompetitive inhibitor; also recorded: non-competitive; also recorded: noncompetitive binding”. For the same compound, the Solubility result in “Solubility” is “good solubility”. For the same compound, the “Inhibition … (0.5 μM)” value in data set [2] is listed as −6.4 ± 5.0%. The “Inhibition of PGAM1 mutations versus wild type” value in [6] was “failed to inhibit mutations of PGAM1 (F22A, R116H and R191H) as effectively as the wild type”.

For `O=C(O[C@@H]1Cc2c(O)cc(O)cc2O[C@@H]1c1cc(O)c(O)c(O)c1)c1cc(O)c(O)c(O)c1` [EGCG, (−)-epigallocatechin-3-gallate], the IC50 in the data set on H1299 cells [7] was greater than 80 µM.

For `O=c1c2c(O)cccc2oc2cc(NS(=O)(=O)c3ccc(N4CCCC4)cc3)c(O)c(O)c12` [Compound 12r], the IC50 in the data set on H1299 cells [7] was 5 µM.

Take `O=C1c2ccccc2C(=O)c2c1cc(S(=O)(=O)Nc1ccc(C(F)(F)F)cc1)c(O)c2O` [PGMI-004A]: in the data set on H1299 cells [7], the IC50 is 25.6 µM.

For `O=C1c2ccccc2C(=O)c2c1cc(NS(=O)(=O)c1ccccc1OC(F)(F)F)c(O)c2O` [Compound 9d, N-(3,4-Dihydroxy-9,10-dioxo-9,10-dihydroanthracen-2-yl)-2-(trifluoromethoxy) benzenesulfonamide], the IC50 against PGAM1 [1] was 2.2 ± 0.5 µM; in the data set on A549 cells, 17 ± 4.9 µM; with H1299 cells [3] it was 13.9 ± 3.6 µM; in the data set on PC9 cells, 44.2 ± 1.5 µM.

Consider `O=C1c2ccccc2C(=O)c2c1cc(NS(=O)(=O)c1c(Cl)cc(Cl)cc1Cl)c(O)c2O` [Compound 9l, 2,4,6-Trichloro-N-(3,4-dihydroxy-9,10-dioxo-9,10-dihydroanthracen-2-yl) benzenesulfonamide], for which the IC50 at PGAM1 [1] was 0.9 ± 0.26 µM; with A549 cells, greater than 50 µM; in the data set on H1299 cells [3] it was 6.2 ± 1.2 µM; in the data set on PC9 cells, greater than 50 µM. Besides, the “Inhibition … (0.5 μM)” value in data set [2] is 0.2 ± 1.7%.

`O=C1c2ccccc2C(=O)c2c1cc(NS(=O)(=O)c1ccccc1F)c(O)c2O` [Compound 9g, N-(3,4-Dihydroxy-9,10-dioxo-9,10-dihydroanthracen-2-yl)-2-fluorobenzenesulfonamide]: the half-maximal inhibitory concentration (IC50) on PGAM1 [1] is 0.79 ± 0.04 µM; in the data set with H1299 cells [3], 31.3 ± 1.9 µM. In [2], the “Inhibition … (0.5 μM)” value came out at 10.2 ± 3.0%.
